The source of these data is ChEMBL document CHEMBL2406945, “Integrated Synthesis and Testing of Substituted Xanthine Based DPP4 Inhibitors: Application to Drug Discovery” (ACS Med Chem Lett, 2013).

Usually IC50 stands for the point on the concentration scale where inhibition reaches its midpoint.

In assay [1] the target is Dipeptidyl peptidase 4 (Sus scrofa) (UniProt P22411). Briefly: Inhibition of porcine DPP4 assessed as residual enzyme activity using H-Gly-Pro-AMC as substrate by fluorescence assay.
Sequence of Dipeptidyl peptidase 4 (Sus scrofa) (P22411 whole entry, looked up): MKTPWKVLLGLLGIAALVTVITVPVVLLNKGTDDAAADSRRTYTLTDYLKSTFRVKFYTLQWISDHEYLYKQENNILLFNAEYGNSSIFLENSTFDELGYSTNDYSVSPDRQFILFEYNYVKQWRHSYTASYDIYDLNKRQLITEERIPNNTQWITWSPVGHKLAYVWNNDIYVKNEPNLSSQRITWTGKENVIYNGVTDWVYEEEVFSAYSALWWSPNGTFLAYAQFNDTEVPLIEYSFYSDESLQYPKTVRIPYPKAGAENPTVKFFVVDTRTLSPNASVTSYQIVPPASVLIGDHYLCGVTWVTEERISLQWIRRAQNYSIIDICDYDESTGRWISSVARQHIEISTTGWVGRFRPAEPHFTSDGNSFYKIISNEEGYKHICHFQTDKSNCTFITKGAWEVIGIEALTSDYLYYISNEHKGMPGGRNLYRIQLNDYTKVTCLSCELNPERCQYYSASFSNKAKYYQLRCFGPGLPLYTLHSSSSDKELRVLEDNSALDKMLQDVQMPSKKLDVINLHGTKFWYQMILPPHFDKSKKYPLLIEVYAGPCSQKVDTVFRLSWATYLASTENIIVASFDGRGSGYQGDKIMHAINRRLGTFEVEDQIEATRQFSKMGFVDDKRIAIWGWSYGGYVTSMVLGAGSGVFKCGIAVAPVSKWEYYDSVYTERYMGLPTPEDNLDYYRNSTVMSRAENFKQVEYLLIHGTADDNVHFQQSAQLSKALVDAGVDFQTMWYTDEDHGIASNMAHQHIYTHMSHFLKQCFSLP
Assay [2] addresses T1, Dipeptidyl peptidase 4 (Sus scrofa, UniProt P22411). Description: Inhibition of porcine DPP4.
The target in assay [3] is T1, Dipeptidyl peptidase 4. Briefly: Inhibition of porcine DPP4 using H-Gly-Pro-AMC as substrate by fluorescence assay.
The target in assay [4] is Dipeptidyl peptidase 4 (Homo sapiens, UniProt P27487). Briefly: Inhibition of human DPP4 using H-Gly-Pro-AMC as substrate by fluorescence assay.
Sequence of Dipeptidyl peptidase 4 (Homo sapiens, UniProt P27487) (P27487 whole entry): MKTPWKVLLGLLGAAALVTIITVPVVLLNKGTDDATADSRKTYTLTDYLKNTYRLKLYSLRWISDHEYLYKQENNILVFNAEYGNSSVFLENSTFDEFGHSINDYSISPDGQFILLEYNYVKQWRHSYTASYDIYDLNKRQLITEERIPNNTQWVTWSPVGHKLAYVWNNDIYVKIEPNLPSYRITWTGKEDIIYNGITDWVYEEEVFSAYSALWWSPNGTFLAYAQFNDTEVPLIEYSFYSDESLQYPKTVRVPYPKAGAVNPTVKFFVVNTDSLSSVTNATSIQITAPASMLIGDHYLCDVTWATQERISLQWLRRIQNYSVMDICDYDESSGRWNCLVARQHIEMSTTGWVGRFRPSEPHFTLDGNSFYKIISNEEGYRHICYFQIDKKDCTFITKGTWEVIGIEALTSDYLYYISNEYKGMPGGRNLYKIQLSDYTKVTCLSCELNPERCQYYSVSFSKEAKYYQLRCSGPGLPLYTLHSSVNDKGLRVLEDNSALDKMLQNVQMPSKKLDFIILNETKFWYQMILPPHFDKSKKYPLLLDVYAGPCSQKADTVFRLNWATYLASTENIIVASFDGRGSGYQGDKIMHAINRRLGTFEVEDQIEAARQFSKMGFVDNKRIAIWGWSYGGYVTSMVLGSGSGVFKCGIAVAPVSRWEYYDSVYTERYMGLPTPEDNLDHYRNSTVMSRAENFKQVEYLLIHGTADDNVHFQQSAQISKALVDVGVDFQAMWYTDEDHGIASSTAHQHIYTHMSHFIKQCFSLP

T1 sequence (P22411 whole entry): as the sequence (P22411 whole entry, looked up) above

Consider `CC(C)=CCn1c(N2CCNCC2)nc2c1c(=O)n(CC(=O)c1ccccc1)c(=O)n2C`, for which, in assay [1], the Activity stood at 11 nM.
With `CC(C)=CCn1c(OC[C@@H](N)Cc2ccccc2)nc2c1c(=O)n(C)c(=O)n2C`, in assay [1], the Activity was 430 nM.
As for `CC(C)=CCn1c(O[C@H]2CCNC2)nc2c1c(=O)n(C)c(=O)n2C`, in assay [1], the Activity was above 8000 nM.
As for `CC(C)=CCn1c(OC[C@H](C)N)nc2c1c(=O)n(C)c(=O)n2C`, the Activity in assay [1] came out at 780 nM.
On to `CC(C)=CCn1c(OCC(C)(C)CN)nc2c1c(=O)n(CC(=O)c1ccccc1)c(=O)n2C`, for which the IC50 was found to be 9 nM on Dipeptidyl peptidase 4 [2] and 6.5 nM on Dipeptidyl peptidase 4 [3]. The Activity in assay [1] turned out to be 6 nM.
Consider `CC(C)=CCn1c(N2CCNCC2)nc2c1c(=O)n(C)c(=O)n2C`, for which the Activity in assay [1] worked out at 173 nM.
As to `CC(C)=CCn1c(OC2CCNCC2)nc2c1c(=O)n(CC(=O)c1ccccc1)c(=O)n2C`, the IC50 at Dipeptidyl peptidase 4 [2] is 1100 nM; on Dipeptidyl peptidase 4 [3] it was 275 nM; against Dipeptidyl peptidase 4 [4], above 1000 nM. Besides, the Activity in assay [1] worked out at 275 nM.
As to `CC(C)=CCn1c(N2CC3CCNC3C2)nc2c1c(=O)n(C)c(=O)n2C` (configuration not stated), in assay [1], the Activity was found to be 6000 nM.
Consider `CC(C)=CCn1c(N2CC3CCCNC3C2)nc2c1c(=O)n(CC(=O)c1ccccc1)c(=O)n2C` (configuration not stated), for which the Activity in assay [1] worked out at 269 nM.
As to `CC(C)=CCn1c(N2CCC[C@H](N)C2)nc2c1c(=O)n(C)c(=O)n2C`, the Activity in assay [1] amounted to 6 nM.
Still for that read-out and setting: then `CC(C)=CCn1c(N2CCC[C@@H](N)C2)nc2c1c(=O)n(C)c(=O)n2C`, with 11 nM.
In the case of `CC(C)=CCn1c(N2CCC3CNCC32)nc2c1c(=O)n(C)c(=O)n2C` (configuration not stated), the 50% inhibitory concentration (IC50) at Dipeptidyl peptidase 4 [2] is 210 nM; at Dipeptidyl peptidase 4 [3] it was 130 nM. Moreover, in assay [1], the Activity came to 132 nM.
As for `CC(C)=CCn1c(OC[C@H]2CCCN2)nc2c1c(=O)n(C)c(=O)n2C`, the Activity in assay [1] is above 7000 nM.
Regarding `CC(C)=CCn1c(N2CCC[C@@H](N)C2)nc2c1c(=O)n(CC(=O)c1ccccc1)c(=O)n2C`, the IC50 on Dipeptidyl peptidase 4 [2] is below 40 nM; against Dipeptidyl peptidase 4 [3], 0.73 nM. Further, the Activity in assay [1] was 0.7 nM.
`CC(C)=CCn1c(OC[C@H]2CCCN2)nc2c1c(=O)n(CC(=O)c1ccccc1)c(=O)n2C`: the results for the concentration for half-maximal inhibition (IC50) against Dipeptidyl peptidase 4 [2] and on Dipeptidyl peptidase 4 [3] were 2500 nM and 705 nM, respectively. Moreover, the Activity in assay [1] amounted to 580 nM.
Consider `CC(C)=CCn1c(O[C@@H](C)CN)nc2c1c(=O)n(CC(=O)c1ccccc1)c(=O)n2C`, for which the Activity in assay [1] was determined as 420 nM.
For the molecule `CC(C)=CCn1c(O[C@@H]2CCNC2)nc2c1c(=O)n(C)c(=O)n2C`, the Activity in assay [1] was above 7000 nM.
The same measure, in the same setting: then `CC(C)=CCn1c(OCC(C)(C)CN)nc2c1c(=O)n(C)c(=O)n2C`, with 260 nM.
Regarding `CC(C)=CCn1c(OCCCN)nc2c1c(=O)n(CC(=O)c1ccccc1)c(=O)n2C`, the Activity in assay [1] amounted to 22 nM.
Turning to `CC(C)=CCn1c(N2CCC[C@H](N)C2)nc2c1c(=O)n(CC(=O)c1ccccc1)c(=O)n2C`, in assay [1], the Activity was determined as 4 nM.
For the molecule `CC(C)=CCn1c(OC[C@@H]2CCCN2)nc2c1c(=O)n(C)c(=O)n2C`, in assay [1], the Activity worked out at 1600 nM.
With `CC(C)=CCn1c(OC[C@@H]2CCCN2)nc2c1c(=O)n(CC(=O)c1ccccc1)c(=O)n2C`, the figures for the IC50 on Dipeptidyl peptidase 4 [2] and against Dipeptidyl peptidase 4 [3] were 17 nM and 16 nM, respectively. In addition, the Activity in assay [1] was 2.6 nM.
Regarding `CC(C)=CCn1c(OC2CCNCC2)nc2c1c(=O)n(C)c(=O)n2C`, the Activity in assay [1] is above 5000 nM.
In the case of `CC(C)=CCn1c(N2CC3CCCNC3C2)nc2c1c(=O)n(C)c(=O)n2C` (configuration not stated), the Activity in assay [1] is above 24500 nM.
